Measured values from the Kinase Knowledgebase extract (Sharma et al. 2016).

Biological target: MAPK14 (UniProt Q16539)
Sequence (Q16539 whole entry, looked up): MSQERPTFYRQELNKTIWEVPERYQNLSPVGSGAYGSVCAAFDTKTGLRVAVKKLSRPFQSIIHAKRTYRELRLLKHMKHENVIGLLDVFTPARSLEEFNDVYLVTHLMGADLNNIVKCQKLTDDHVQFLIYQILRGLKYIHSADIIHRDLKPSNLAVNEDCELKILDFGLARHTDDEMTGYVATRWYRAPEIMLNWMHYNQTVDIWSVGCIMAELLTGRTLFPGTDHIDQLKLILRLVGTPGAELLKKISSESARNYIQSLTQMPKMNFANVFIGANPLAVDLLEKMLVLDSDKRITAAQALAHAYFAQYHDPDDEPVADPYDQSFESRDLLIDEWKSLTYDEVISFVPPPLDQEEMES

| IC50 [µM] | SMILES |
| --- | --- |
| < 50 | C[C@@H](CO)n1cnc(-c2ccc(F)cc2)c1-c1ccnc(Oc2ccc(Cl)cc2)n1 |
| < 50 | Cc1ccc(Oc2nccc(-c3c(-c4ccc(F)cc4)ncn3[C@@H](C)CO)n2)cc1 |
| < 50 | C[C@H](CO)n1cnc(-c2ccc(F)cc2)c1-c1ccnc(Oc2ccc(F)cc2)n1 |
| < 50 | OCC(CO)n1cnc(-c2ccc(F)cc2)c1-c1ccnc(Oc2ccccc2)n1 |
| < 50 | C[C@@H](CO)n1cnc(-c2ccc(F)cc2)c1-c1ccnc(Oc2ccc(F)cc2)n1 |
| < 50 | CC[C@@H](CO)n1cnc(-c2ccc(F)cc2)c1-c1ccnc(Oc2ccc(Cl)cc2)n1 |
| < 50 | OC[C@@H](c1ccccc1)n1cnc(-c2ccc(F)cc2)c1-c1ccnc(Oc2ccccc2)n1 |
| < 50 | CC[C@@H](CO)n1cnc(-c2ccc(F)cc2)c1-c1ccnc(Oc2ccc(C)cc2)n1 |

Second part, the compound before the results:

| SMILES | IC50 [µM] |
| --- | --- |
| Cc1ccc(Oc2nccc(-c3c(-c4ccc(F)cc4)ncn3C(CO)CO)n2)cc1 | < 50 |
| C[C@H](CCN1CCOCC1)n1cnc(-c2ccc(F)cc2)c1-c1ccnc(Oc2ccccc2)n1 | < 50 |
| CC[C@H](CO)n1cnc(-c2ccc(F)cc2)c1-c1ccnc(Oc2ccccc2)n1 | < 50 |
| CC[C@H](CO)n1cnc(-c2ccc(F)cc2)c1-c1ccnc(Oc2ccc(Cl)cc2)n1 | < 50 |
| OC[C@H](c1ccccc1)n1cnc(-c2ccc(F)cc2)c1-c1ccnc(Oc2ccccc2)n1 | < 50 |
| OCC(CO)n1cnc(-c2ccc(F)cc2)c1-c1ccnc(Oc2ccc(F)cc2)n1 | < 50 |
| CC[C@@H](CO)n1cnc(-c2ccc(F)cc2)c1-c1ccnc(Oc2ccccc2)n1 | < 50 |
| CC[C@H](CO)n1cnc(-c2ccc(F)cc2)c1-c1ccnc(Oc2ccc(C)cc2)n1 | < 50 |
